Laboratory results from patent EP0801066A1, “Heterocyclic substituted benzothiophenes and pharmaceutical compositions” (ELI LILLY AND COMPANY, priority 1996, dated 1997).
Marks after values point to notes of the source that are not given here.

Assays:
[1] = test system: Serum cholesterol; assay: Serum cholesterol analysis in ovariectomized rats (hyperlipidemia); assay type: in vivo, Sprague Dawley rats; conditions: oral; for Decrease in Cholesterol (%): daily for 4 days, serum cholesterol versus ovariectomized controls
Source text: (§1) Seventy-five day old female Sprague Dawley rats (weight range of 200 to 225g) are obtained from Charles River Laboratories (Portage, MI). The animals are either bilaterally ovariectomized (OVX) or exposed to a Sham surgical procedure at Charles River Laboratories, and then shipped after one week. Upon arrival, they are housed in metal hanging cages in groups of 3 or 4 per cage and have ad libitum access to food (calcium content approximately 0.5%) and water for one week. Room temperature is maintained at 22.2° ± 1.7° C with a minimum relative humidity of 40%. The photoperiod in the room is 12 hours light and 12 hours dark.
(§2) Dosing Regimen Tissue Collection. After a one week acclimation period (therefore, two weeks post-OVX) daily dosing with test compound is initiated. 17α-ethynyl estradiol or the test compound is given orally, unless otherwise stated, as a suspension in 1% carboxymethylcellulose or dissolved in 20% cyclodextrin. Animals were dosed daily for 4 days. Following the dosing regimen, animals are weighed and anesthetized with a ketamine: Xylazine (2:1, V:V) mixture and a blood sample is collected by cardiac puncture. The animals are then sacrificed by asphyxiation with CO2, the uterus is removed through a midline incision, and a wet uterine weight is determined.
Cholesterol Analysis. Blood samples are allowed to clot at room temperature for 2 hours, and serum is obtained following centrifugation for 10 minutes at 3000 rpm. Serum cholesterol is determined using a Boehringer Mannheim Diagnostics high performance cholesterol assay. Briefly the cholesterol is oxidized to cholest-4-en-3-one and hydrogen peroxide. The hydrogen peroxide is then reacted with phenol and 4-aminophenazone in the presence of peroxidase to produce a p-quinone imine dye, which is read spectrophotemetrically at 500 nm. Cholesterol concentration is then calculated against a standard curve. The entire assay is automated using a Biomek Automated Workstation.

[2] = test system: Uterine Eosinophil Peroxidase (EPO); assay: Uterine Eosinophil Peroxidase (EPO) Assay in ovariectomized rats; assay type: in vivo, Sprague Dawley rats; conditions: for Serum Eosinophil (Vmax): oral, daily for 4 days, eosinophil peroxidase Vmax
Source text: as §1, §2
Uterine Eosinophil Peroxidase (EPO) Assay. Uteri are kept at 4° C until time of enzymatic analysis. The uteri are then homogenized in 50 volumes of 50 mM Tris buffer (pH - 8.0) containing 0.005% Triton X-100. Upon addition of 0.01% hydrogen peroxide and 10 mM O-phenylenediamine (final concentrations) in Tris buffer, increase in absorbance is monitored for one minute at 450 nm. The presence of eosonophils in the uterus is an indication of estrogenic activity of a compound. The maximal velocity of a 15 second interval is determined over the initial, linear portion of the reaction curve.

[3] = test system: ovariectomized rats; assay: Osteoporosis Test Procedure: femur density in ovariectomized rats, 35-day dosing; assay type: in vivo, Sprague Dawley rats; conditions: oral, in 20% hydroxypropyl β-cyclodextrin, daily for 35 days
Source text: Seventy-five day old female Sprague Dawley rats (weight range of 200 to 225g) are obtained from Charles River Laboratories (Portage, MI). The animals are either bilaterally ovariectomized (OVX) or exposed to a Sham surgical procedure at Charles River Laboratories, and then shipped after one week. Upon arrival, they are housed in metal hanging cages in groups of 3 or 4 per cage and have ad libitum access to food (calcium content approximately 0.5%) and water for one week. Room temperature is maintained at 22.2° ± 1.7° C with a minimum relative humidity of 40%. The photoperiod in the room is 12 hours light and 12 hours dark. Following the General Preparation Procedure, infra, the rats are treated daily for 35 days (6 rats per treatment group) and sacrificed by carbon dioxide asphyxiation on the 36th day. The 35 day time period is sufficient to allow maximal reduction in bone density, measured as described herein. At the time of sacrifice, the uteri are removed, dissected free of extraneous tissue, and the fluid contents are expelled before determination of wet weight in order to confirm estrogen deficiency associated with complete ovariectomy. […] The right femurs are excised and digitilized x-rays generated and analyzed by an image analysis program (NIH image) at the distal metaphysis. The proximal aspect of the tibiae from these animals are also scanned by quantitative computed tomography. […]

[4] = test system: ovariectomized rats; assay: Uterine weight in ovariectomized rat post-menopausal model, 4-day oral dosing; assay type: in vivo, Sprague Dawley rats; conditions: for Increase in Uterine Weight (%): daily for 4 days, versus ovariectomized controls
Procedure: In the examples illustrating the methods, a post-menopausal model was used in which effects of different treatments upon circulating lipids were determined.
as §1, §2

[5] = test system: MCF-7 breast adenocarcinoma cells; assay: MCF-7 Proliferation Assay (tritiated thymidine incorporation); assay type: cell-based; conditions: Homo sapiens, MCF7; 48 hours with drug, 4 hours tritiated thymidine pulse; read-out: IC50, inhibition of the growth of MCF-7 cells
Procedure: MCF-7 breast adenocarcinoma cells (ATCC HTB 22) are maintained in MEM (minimal essential medium, phenol red-free, Sigma, St. Louis, MO) supplemented with 10% fetal bovine serum (FBS) (V/V), L-glutamine (2 mM), sodium pyruvate (1 mM), HEPES {(N-[2-hydroxyethyl]piperazine-N'-[2-ethanesulfonic acid]10 mM}, non-essential amino acids and bovine insulin (1 ug/mL) (maintenance medium). Ten days prior to assay, MCF-7 cells are switched to maintenance medium supplemented with 10% dextran coated charcoal stripped fetal bovine serum (DCC-FBS) assay medium) in place of 10% FBS to deplete internal stores of steroids. MCF-7 cells are removed from maintenance flasks using cell dissociation medium (Ca^++/Mg^++ free HBSS (phenol red-free) supplemented with 10 mM HEPES and 2 mM EDTA). Cells are washed twice with assay medium and adjusted to 80,000 cells/mL. Approximately 100 µL (8,000 cells) are added to flat-bottom microculture wells (Costar 3596) and incubated at 37° C in a 5% CO2 humidified incubator for 48 hours to allow for cell adherence and equilibration after transfer. Serial dilutions of drugs or DMSO as a diluent control are prepared in assay medium and 50 µL transferred to triplicate microcultures followed by 50 µL assay medium for a final volume of 200 µL. […] Samples are counted by liquid scintillation using a Wallac BetaPlace β counter. […]

[6] = ovariectomized rats, EE2 at 0.1 mg/kg/day

`C#C[C@]1(O)CC[C@H]2[C@@H]3CCc4cc(O)ccc4[C@H]3CC[C@@]21C` [EE2, 17-a-ethynyl estradiol, reference compound] was tested, and the “Decrease in Cholesterol (%)” value ([1]; dose 0.1 mg/kg) was 87.4* %, the “serum cholesterol compared to the ovariectomized animals (in words)” value [1, 6] was “caused a decrease in serum cholesterol” and the “Serum Eosinophil (Vmax)” value ([2]; dose 0.1 mg/kg) was 211.1*. For the same compound, the “eosinophil infiltration into the uterus (in words)” value ([2]; stromal layer of ovariectomized rat uteri) was “substantial and expected increase in eosinophil infiltration”, the “bone loss / reduction in femur density after ovariectomy (in words)” value [3] was “prevented this loss” and the “Increase in Uterine Weight (%)” value ([4]; dose 0.1 mg/kg) was 182.1* %. The “uterine weight compared to the ovariectomized animals (in words)” value [4, 6] was “substantially greater than the uterine weight of the ovariectomized animals”.
In the case of `O=C(c1ccc(OCCN2CCCCC2)nc1)c1c(-c2ccc(O)cc2)sc2cc(O)ccc12` [Prep. 1, [2-(4-Hydroxyphenyl)-6-hydroxybenzo[b]thien-3-yl][2-[2-(1-piperidinyl)ethoxy]pyridin-5-yl]methanone], the “Decrease in Cholesterol (%)” value ([1]; dose 0.1 mg/kg) is reported as 57.1* %, the “Decrease in Cholesterol (%)” value ([1]; dose 1.0 mg/kg) is reported as 66.1* % and the “Decrease in Cholesterol (%)” value ([1]; dose 10.0 mg/kg) is reported as 61.7* %. For the same compound, the IC50 [5] was 10 nM, the “Serum Eosinophil (Vmax)” value ([2]; dose 0.1 mg/kg) was 48.0* and the “Serum Eosinophil (Vmax)” value ([2]; dose 1.0 mg/kg) was 70.5*. The “Serum Eosinophil (Vmax)” value ([2]; dose 10.0 mg/kg) was 55.8*, the “Increase in Uterine Weight (%)” value ([4]; dose 0.1 mg/kg) was 80.3* % and the “Increase in Uterine Weight (%)” value ([4]; dose 1.0 mg/kg) was 91.4* %. The “Increase in Uterine Weight (%)” value ([4]; dose 10.0 mg/kg) was 80.8* %.
